Read-outs that look alike come from different tables or passages of the source.
Assays:
Type in all cases: in vivo
[1] = tested on: green peach aphids (Myzus persicae); assay: LC50 biological efficacy assay on green peach aphids, aerosolized dilutions on infested radish leaves
Description: Biological efficacy assays utilizing terpendoles were conducted on green peach aphids (Myzus persicae). Specifically, terpendole A, terpendole C, terpendole J, terpendole K, terpendole N, terpendole O and terpendole P were each separately applied in serial dilutions to determine the concentration at which 50% control of green peach aphids occurred over a period of 24-48 hours (“LC50”). Radish leaves infested with green peach aphids were treated, top and bottom, with a total of 500 μl of an aerosolized terpendole dilution. Treated, aphid infested leaves were held in greenhouse conditions and evaluated for efficacy at 24 and 48 h.

[2] = tested on: cotton aphid (Aphis gossypii); assay: whole plant or invertebrate
Description: (§1) A bioefficacy assay utilizing terpendole C was conducted on the lepidopterans: diamondback moth (Plutella xylostella) and common cutworm (Spodoptera litura): the whitefly, tobacco whitefly (Bemisia tabaci) the thrips, western flower thrips (Frankliniella occidentalis); the planthopper, brown rice planthopper (Nilaparvata lugens); the aphids, cotton aphid (Aphis gossypii), foxglove aphid (Aulacorthum solani), cabbage aphid (Brevicoryne brassicae), birdcherry-oat aphid (Rhopalosiphum padi), green peach aphid (Myzus persicae); and the mite, two-spotted spider mite (Tetranychus urticae). Specifically, terpendole C was diluted with acetone and 5% Tween® 20 and finally diluted with water to prepare spray solutions. Terpendole C was then applied to plants as a foliar spray at 500, 200, 50, 12.5, 3.1, 1, 0.8 and/or 0.2 ppm and/or as a soil treatment at 2,500, 1,000, 250, 63, 16, 4 and/or 1 ppm. Pests were then placed on the plant or in the soil. Further, mortality and appetite suppression were recorded at 6, 7 and/or 13 days after treatment (“DAT”) and are reported in Tables 2 and 3, below, respectively.

[3] = tested on: brown rice planthopper (Nilaparvata lugens); assay: whole plant or invertebrate; conditions: 3rd-4th instar, 6 DAT
Description: as §1

[4] = tested on: western flower thrips (Frankliniella occidentalis); assay: whole plant or invertebrate
Description: as §1

[5] = tested on: foxglove aphid (Aulacorthum solani); assay: whole plant or invertebrate
Description: as §1

[6] = tested on: tobacco whitefly (Bemisia tabaci); assay: whole plant or invertebrate
Description: as §1

[7] = tested on: two-spotted spider mite (Tetranychus urticae); assay: whole plant or invertebrate; conditions: Kidney Bean, All stages; for mortality at 12.5 ppm / mortality at 50 ppm / mortality at 200 ppm / mortality at 500 ppm: Tetranychus urticae, read-out: Mortality score
Description: as §1

[8] = tested on: green peach aphid (Myzus persicae); assay: whole plant or invertebrate
Description: as §1

[9] = tested on: cabbage aphid (Brevicoryne brassicae); assay: whole plant or invertebrate
Description: as §1

[10] = tested on: birdcherry-oat aphid (Rhopalosiphum padi); assay: whole plant or invertebrate
Description: as §1

[11] = tested on: common cutworm (Spodoptera litura); assay: whole plant or invertebrate
Description: as §1

[12] = tested on: diamondback moth (Plutella xylostella); assay: whole plant or invertebrate
Description: as §1

[13] = either by killing the larvae or suppressing the appetite of the larvae

CC(C)=C[C@H]1O[C@H]2[C@H]3O[C@@]34[C@H](CC[C@@]3(C)[C@@]4(O)CC[C@H]4Cc5c([nH]c6ccccc56)[C@@]43C)O[C@@H]2C(C)(C)O1 [Terpendole C, terpendole C]
100%: mortality at 200 ppm ([2]; Aphis gossypii, 144 h, 200 ppm, Cucumber, All stages, 6 DAT, read-out: Mortality score (converted)) | mortality at 500 ppm ([2]; Aphis gossypii, 144 h, 500 ppm, Cucumber, All stages, 6 DAT, read-out: Mortality score (converted)) | mortality at 200 ppm ([8]; Myzus persicae, 144 h, 200 ppm, Cabbage, All stages, 6 DAT, read-out: Mortality score (converted)) | mortality at 12.5 ppm ([9]; Brevicoryne brassicae, 144 h, 12.5 ppm, Cabbage, All stages, 6 DAT, read-out: Mortality score (converted)) | mortality at 50 ppm ([9]; Brevicoryne brassicae, 144 h, 50 ppm, Cabbage, All stages, 6 DAT, read-out: Mortality score (converted)) | mortality at 200 ppm ([9]; Brevicoryne brassicae, 144 h, 200 ppm, Cabbage, All stages, 6 DAT, read-out: Mortality score (converted)) | mortality at 500 ppm ([12]; Plutella xylostella, 144 h, 500 ppm, Cabbage, 3rd instar, 6 DAT, read-out: Mortality score (converted))
20 ppm: LC50 ([1]; concentration for 50% control over 24-48 hours, infested radish leaves, 500 μl aerosolized dilution)
significantly controlled: control of the thrips (in words) ([4]; summary of results) | control of the whitefly (in words) ([6]; summary of results)
75%: mortality at 0.8 ppm ([2]; Aphis gossypii, 144 h, 0.8 ppm, Cucumber, All stages, 6 DAT, read-out: Mortality score (converted)) | mortality at 500 ppm ([5]; Aulacorthum solani, 144 h, 500 ppm, Kidney Bean, Adult, 6 DAT, read-out: Mortality score (converted)) | mortality at 12.5 ppm ([8]; Myzus persicae, 144 h, 12.5 ppm, Cabbage, All stages, 6 DAT, read-out: Mortality score (converted)) | mortality at 0.8 ppm ([9]; Brevicoryne brassicae, 144 h, 0.8 ppm, Cabbage, All stages, 6 DAT, read-out: Mortality score (converted)) | mortality at 3.1 ppm ([9]; Brevicoryne brassicae, 144 h, 3.1 ppm, Cabbage, All stages, 6 DAT, read-out: Mortality score (converted)) | mortality at 50 ppm ([10]; Rhopalosiphum padi, 144 h, 50 ppm, Wheat, All stages, 6 DAT, read-out: Mortality score (converted))
2 (2 = about 25% suppression): Appetite suppression score ([5]; 500 ppm, Kidney Bean, Adult, 6 DAT)
0-2: Mortality score ([6]; 12.5 ppm, Cabbage, 1st instar, 7 DAT)
3-4: Mortality score ([2]; 12.5 ppm, Cucumber, All stages, 6 DAT) | Appetite suppression score ([4]; 12.5 ppm, Kidney Bean, 1st-2nd instar, 6 DAT) | Appetite suppression score ([4]; 50 ppm, Kidney Bean, 1st-2nd instar, 6 DAT) | Appetite suppression score ([4]; 200 ppm, Kidney Bean, 1st-2nd instar, 6 DAT) | Appetite suppression score ([4]; 500 ppm, Kidney Bean, 1st-2nd instar, 6 DAT)
0-1: Mortality score ([3]; 12.5 ppm)
50%: mortality at 200 ppm ([5]; Aulacorthum solani, 144 h, 200 ppm, Kidney Bean, Adult, 6 DAT, read-out: Mortality score (converted)) | mortality at 1 ppm ([6]; Bemisia tabaci, 168 h, 1 ppm, Cabbage, 1st instar, 7 DAT, read-out: Mortality score (converted)) | mortality at 3.1 ppm ([6]; Bemisia tabaci, 168 h, 3.1 ppm, Cabbage, 1st instar, 7 DAT, read-out: Mortality score (converted)) | mortality at 3.1 ppm ([8]; Myzus persicae, 144 h, 3.1 ppm, Cabbage, All stages, 6 DAT, read-out: Mortality score (converted)) | mortality at 12.5 ppm ([10]; Rhopalosiphum padi, 144 h, 12.5 ppm, Wheat, All stages, 6 DAT, read-out: Mortality score (converted)) | mortality at 12.5 ppm ([12]; Plutella xylostella, 144 h, 12.5 ppm, Cabbage, 3rd instar, 6 DAT, read-out: Mortality score (converted)) | mortality at 50 ppm ([12]; Plutella xylostella, 144 h, 50 ppm, Cabbage, 3rd instar, 6 DAT, read-out: Mortality score (converted))
0: Appetite suppression score ([5]; 12.5 ppm, Kidney Bean, Adult, 6 DAT) | Appetite suppression score ([5]; 50 ppm, Kidney Bean, Adult, 6 DAT) | Appetite suppression score ([5]; 200 ppm, Kidney Bean, Adult, 6 DAT) | Appetite suppression score ([7]; 12.5 ppm, 7 DAT) | Appetite suppression score ([7]; 12.5 ppm, 13 DAT) | Appetite suppression score ([7]; 50 ppm, 7 DAT) | Appetite suppression score ([7]; 50 ppm, 13 DAT) | Appetite suppression score ([7]; 200 ppm, 7 DAT) | Appetite suppression score ([7]; 200 ppm, 13 DAT) | Appetite suppression score ([7]; 500 ppm, 7 DAT) | Appetite suppression score ([7]; 500 ppm, 13 DAT) | Appetite suppression score ([12]; 12.5 ppm, Cabbage, 3rd instar, 6 DAT) | Appetite suppression score ([12]; 50 ppm, Cabbage, 3rd instar, 6 DAT)
4 (4 = 70-100% suppression): Appetite suppression score ([11]; 12.5 ppm, Cabbage, 4th instar, 6 DAT) | Appetite suppression score ([11]; 50 ppm, Cabbage, 4th instar, 6 DAT) | Appetite suppression score ([11]; 200 ppm, Cabbage, 4th instar, 6 DAT) | Appetite suppression score ([11]; 500 ppm, Cabbage, 4th instar, 6 DAT) | Appetite suppression score ([12]; 500 ppm, Cabbage, 3rd instar, 6 DAT)
effectively controlled: control of green peach aphids (in words) ([1]; summary of Table 1) | control of cotton aphids (in words) ([2]; summary of Table 2) | control of foxglove aphids (in words) ([5]; summary of Table 2) | control of green peach aphids (in words) ([8]; summary of Table 2) | control of cabbage aphids (in words) ([9]; summary of Table 2) | control of birdcherry-oat aphids (in words) ([10]; summary of Table 2) | control of common cutworm (in words) [11, 13] | control of diamondback moth (in words) [12, 13]
90%: mortality at 3.1 ppm ([2]; Aphis gossypii, 144 h, 3.1 ppm, Cucumber, All stages, 6 DAT, read-out: Mortality score (converted)) | mortality at 50 ppm ([2]; Aphis gossypii, 144 h, 50 ppm, Cucumber, All stages, 6 DAT, read-out: Mortality score (converted)) | mortality at 50 ppm ([8]; Myzus persicae, 144 h, 50 ppm, Cabbage, All stages, 6 DAT, read-out: Mortality score (converted)) | mortality at 200 ppm ([10]; Rhopalosiphum padi, 144 h, 200 ppm, Wheat, All stages, 6 DAT, read-out: Mortality score (converted)) | mortality at 200 ppm ([12]; Plutella xylostella, 144 h, 200 ppm, Cabbage, 3rd instar, 6 DAT, read-out: Mortality score (converted))
< 29%: mortality at 0.2 ppm ([2]; Aphis gossypii, 144 h, 0.2 ppm, Cucumber, All stages, 6 DAT, read-out: Mortality score) | mortality at 0.2 ppm ([3]; Nilaparvata lugens, 144 h, 0.2 ppm, read-out: Mortality score) | mortality at 0.8 ppm ([3]; Nilaparvata lugens, 144 h, 0.8 ppm, read-out: Mortality score) | mortality at 3.1 ppm ([3]; Nilaparvata lugens, 144 h, 3.1 ppm, read-out: Mortality score) | mortality at 50 ppm ([3]; Nilaparvata lugens, 144 h, 50 ppm, read-out: Mortality score) | mortality at 200 ppm ([3]; Nilaparvata lugens, 144 h, 200 ppm, read-out: Mortality score) | mortality at 500 ppm ([3]; Nilaparvata lugens, 144 h, 500 ppm, read-out: Mortality score) | mortality at 0.2 ppm ([4]; Frankliniella occidentalis, 144 h, 0.2 ppm, Kidney Bean, 1st-2nd instar, 6 DAT, read-out: Mortality score) | mortality at 0.8 ppm ([4]; Frankliniella occidentalis, 144 h, 0.8 ppm, Kidney Bean, 1st-2nd instar, 6 DAT, read-out: Mortality score) | mortality at 3.1 ppm ([4]; Frankliniella occidentalis, 144 h, 3.1 ppm, Kidney Bean, 1st-2nd instar, 6 DAT, read-out: Mortality score) | mortality at 12.5 ppm ([4]; Frankliniella occidentalis, 144 h, 12.5 ppm, Kidney Bean, 1st-2nd instar, 6 DAT, read-out: Mortality score) | mortality at 50 ppm ([4]; Frankliniella occidentalis, 144 h, 50 ppm, Kidney Bean, 1st-2nd instar, 6 DAT, read-out: Mortality score) | mortality at 200 ppm ([4]; Frankliniella occidentalis, 144 h, 200 ppm, Kidney Bean, 1st-2nd instar, 6 DAT, read-out: Mortality score) | mortality at 500 ppm ([4]; Frankliniella occidentalis, 144 h, 500 ppm, Kidney Bean, 1st-2nd instar, 6 DAT, read-out: Mortality score) | mortality at 12.5 ppm ([5]; Aulacorthum solani, 144 h, 12.5 ppm, Kidney Bean, Adult, 6 DAT, read-out: Mortality score) | mortality at 50 ppm ([5]; Aulacorthum solani, 144 h, 50 ppm, Kidney Bean, Adult, 6 DAT, read-out: Mortality score) | mortality at 0.8 ppm ([6]; Bemisia tabaci, 168 h, 0.8 ppm, Cabbage, 1st instar, 7 DAT, read-out: Mortality score) | mortality at 50 ppm ([6]; Bemisia tabaci, 168 h, 50 ppm, Cabbage, 1st instar, 7 DAT, read-out: Mortality score) | mortality at 200 ppm ([6]; Bemisia tabaci, 168 h, 200 ppm, Cabbage, 1st instar, 7 DAT, read-out: Mortality score) | mortality at 500 ppm ([6]; Bemisia tabaci, 168 h, 500 ppm, Cabbage, 1st instar, 7 DAT, read-out: Mortality score) | mortality at 12.5 ppm ([7]; 168 h, 12.5 ppm, 7 DAT) | mortality at 50 ppm ([7]; 168 h, 50 ppm, 7 DAT) | mortality at 200 ppm ([7]; 168 h, 200 ppm, 7 DAT) | mortality at 500 ppm ([7]; 168 h, 500 ppm, 7 DAT) | mortality at 12.5 ppm ([7]; 312 h, 12.5 ppm, 13 DAT) | mortality at 50 ppm ([7]; 312 h, 50 ppm, 13 DAT) | mortality at 200 ppm ([7]; 312 h, 200 ppm, 13 DAT) | mortality at 500 ppm ([7]; 312 h, 500 ppm, 13 DAT) | mortality at 0.8 ppm ([8]; Myzus persicae, 144 h, 0.8 ppm, Cabbage, All stages, 6 DAT, read-out: Mortality score) | mortality at 0.8 ppm ([10]; Rhopalosiphum padi, 144 h, 0.8 ppm, Wheat, All stages, 6 DAT, read-out: Mortality score) | mortality at 3.1 ppm ([10]; Rhopalosiphum padi, 144 h, 3.1 ppm, Wheat, All stages, 6 DAT, read-out: Mortality score) | mortality at 12.5 ppm ([11]; Spodoptera litura, 144 h, 12.5 ppm, Cabbage, 4th instar, 6 DAT, read-out: Mortality score) | mortality at 50 ppm ([11]; Spodoptera litura, 144 h, 50 ppm, Cabbage, 4th instar, 6 DAT, read-out: Mortality score) | mortality at 200 ppm ([11]; Spodoptera litura, 144 h, 200 ppm, Cabbage, 4th instar, 6 DAT, read-out: Mortality score) | mortality at 500 ppm ([11]; Spodoptera litura, 144 h, 500 ppm, Cabbage, 4th instar, 6 DAT, read-out: Mortality score)
3 (3 = about 60% suppression): Appetite suppression score ([12]; 200 ppm, Cabbage, 3rd instar, 6 DAT)
